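Cells were grown in 96-well plates and exposed to each compound for 48 hours at five concentrations; endpoints were interpolated linearly between bracketing concentrations, or set to the highest concentration if not reached. At the GI50, growth is halved. TGI marks complete inhibition of growth.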
How the values were obtained:
Test in all cases: NCI-60 cell line screen, 48 h
TK-10 renal = tested on: TK-10 renal
SK-MEL-2 melanoma = tested on: SK-MEL-2 melanoma
SF-268 CNS = tested on: SF-268 CNS
NCI-H226 lung = tested on: NCI-H226 lung
OVCAR-3 ovarian = tested on: OVCAR-3 ovarian
LOX IMVI melanoma = tested on: LOX IMVI melanoma
A549 NSCLC = tested on: A549 NSCLC
OVCAR-8 ovarian = tested on: OVCAR-8 ovarian
MDA-MB-435 = tested on: MDA-MB-435
IGROV1 ovarian = tested on: IGROV1 ovarian
M14 melanoma = tested on: M14 melanoma
HL-60(TB) leukemia = tested on: HL-60(TB) leukemia
MALME-3M melanoma = tested on: MALME-3M melanoma
CAKI-1 renal = tested on: CAKI-1 renal
NCI-H23 lung = tested on: NCI-H23 lung
UACC-62 melanoma = tested on: UACC-62 melanoma
K-562 leukemia = tested on: K-562 leukemia
OVCAR-4 ovarian = tested on: OVCAR-4 ovarian
CCRF-CEM leukemia = tested on: CCRF-CEM leukemia
HCT-116 colon = tested on: HCT-116 colon
MDA-MB-231 breast = tested on: MDA-MB-231 breast
NCI/ADR-RES ovarian = tested on: NCI/ADR-RES ovarian
A498 renal = tested on: A498 renal
BT-549 breast = tested on: BT-549 breast
UO-31 renal = tested on: UO-31 renal
HT29 colon = tested on: HT29 colon
SNB-75 CNS = tested on: SNB-75 CNS
OVCAR-5 ovarian = tested on: OVCAR-5 ovarian
T-47D breast = tested on: T-47D breast
UACC-257 melanoma = tested on: UACC-257 melanoma
PC-3 prostate = tested on: PC-3 prostate
NCI-H460 lung = tested on: NCI-H460 lung
DU-145 prostate = tested on: DU-145 prostate
RXF 393 renal = tested on: RXF 393 renal
HS 578T breast = tested on: HS 578T breast
SF-295 CNS = tested on: SF-295 CNS
SW-620 colon = tested on: SW-620 colon
HCT-15 colon = tested on: HCT-15 colon
SNB-19 CNS = tested on: SNB-19 CNS
MCF7 breast = tested on: MCF7 breast
RPMI-8226 leukemia = tested on: RPMI-8226 leukemia
SK-MEL-5 melanoma = tested on: SK-MEL-5 melanoma
SR leukemia = tested on: SR leukemia
MOLT-4 leukemia = tested on: MOLT-4 leukemia
HOP-92 NSCLC = tested on: HOP-92 NSCLC
SN12C renal = tested on: SN12C renal
NCI-H522 lung = tested on: NCI-H522 lung
KM12 colon = tested on: KM12 colon
SF-539 CNS = tested on: SF-539 CNS
HOP-62 NSCLC = tested on: HOP-62 NSCLC
ACHN renal = tested on: ACHN renal
786-0 renal = tested on: 786-0 renal
SK-MEL-28 melanoma = tested on: SK-MEL-28 melanoma
HCC-2998 colon = tested on: HCC-2998 colon
U251 CNS = tested on: U251 CNS
SK-OV-3 ovarian = tested on: SK-OV-3 ovarian
EKVX NSCLC = tested on: EKVX NSCLC

## CCOC(=O)c1ccc2c(c1)c1c(C)c3cnccc3c(C)c1n2C
TK-10 renal
  GI50: 334 nM
  TGI: 1310 nM
SK-MEL-2 melanoma
  GI50: 190 nM
  TGI: 677 nM
SF-268 CNS
  GI50: 98.8 nM
  TGI: 823 nM
NCI-H226 lung
  GI50: 91.1 nM
  TGI: 382 nM
OVCAR-3 ovarian
  GI50: 119 nM
  TGI: 470 nM
LOX IMVI melanoma
  GI50: 55.8 nM
  TGI: 310 nM
A549 NSCLC
  GI50: 147 nM
  TGI: 1020 nM
OVCAR-8 ovarian
  GI50: 116 nM
  TGI: 2990 nM
MDA-MB-435
  GI50: 142 nM
  TGI: 501 nM
IGROV1 ovarian
  GI50: 53.9 nM
  TGI: 357 nM
M14 melanoma
  GI50: 151 nM
  TGI: 383 nM
HL-60(TB) leukemia
  GI50: 324 nM
  TGI: 1490 nM
MALME-3M melanoma
  GI50: 131 nM
  TGI: 407 nM
CAKI-1 renal
  GI50: 47.5 nM
  TGI: 859 nM
NCI-H23 lung
  GI50: 100 nM
  TGI: 417 nM
UACC-62 melanoma
  GI50: 98.4 nM
  TGI: 264 nM
K-562 leukemia
  GI50: 79.2 nM
  TGI: 1320 nM
OVCAR-4 ovarian
  GI50: 217 nM
  TGI: 697 nM
CCRF-CEM leukemia
  GI50: 216 nM
  TGI: 2940 nM
HCT-116 colon
  GI50: 37.8 nM
  TGI: 1030 nM
MDA-MB-231 breast
  GI50: 160 nM
  TGI: 892 nM
NCI/ADR-RES ovarian
  GI50: 68.2 nM
  TGI: 600 nM
A498 renal
  GI50: 162 nM
  TGI: 376 nM
BT-549 breast
  GI50: 441 nM
  TGI: 1880 nM
UO-31 renal
  GI50: 53.6 nM
  TGI: 728 nM
HT29 colon
  GI50: 56.1 nM
  TGI: 1410 nM
SNB-75 CNS
  GI50: 141 nM
  TGI: 703 nM
OVCAR-5 ovarian
  GI50: 216 nM
  TGI: 912 nM
T-47D breast
  GI50: 382 nM
  TGI: 15800 nM
UACC-257 melanoma
  GI50: 181 nM
  TGI: 651 nM
PC-3 prostate
  GI50: 137 nM
  TGI: 821 nM
NCI-H460 lung
  GI50: 265 nM
  TGI: 1070 nM
DU-145 prostate
  GI50: 108 nM
  TGI: 718 nM
RXF 393 renal
  GI50: 120 nM
  TGI: 390 nM
HS 578T breast
  GI50: 204 nM
  TGI: 900 nM
SF-295 CNS
  GI50: 128 nM
  TGI: 765 nM
SW-620 colon
  GI50: 48.2 nM
  TGI: 839 nM
HCT-15 colon
  GI50: 57.1 nM
  TGI: 921 nM
SNB-19 CNS
  GI50: 107 nM
  TGI: 1330 nM
MCF7 breast
  GI50: 205 nM
  TGI: 1030 nM
RPMI-8226 leukemia
  GI50: 95.3 nM
  TGI: 1800 nM
SK-MEL-5 melanoma
  GI50: 192 nM
  TGI: 651 nM
SR leukemia
  GI50: 44.7 nM
MOLT-4 leukemia
  GI50: 59.4 nM
  TGI: 1660 nM
HOP-92 NSCLC
  GI50: 143 nM
  TGI: 813 nM
SN12C renal
  GI50: 78.3 nM
  TGI: 865 nM
NCI-H522 lung
  GI50: 88.1 nM
  TGI: 318 nM
KM12 colon
  GI50: 128 nM
  TGI: 1030 nM
SF-539 CNS
  GI50: 173 nM
  TGI: 1070 nM
HOP-62 NSCLC
  GI50: 75.5 nM
  TGI: 1070 nM
ACHN renal
  GI50: 38.5 nM
  TGI: 328 nM
786-0 renal
  GI50: 141 nM
  TGI: 1110 nM
SK-MEL-28 melanoma
  GI50: 183 nM
  TGI: 463 nM
HCC-2998 colon
  GI50: 257 nM
  TGI: 1290 nM
U251 CNS
  GI50: 99.2 nM
  TGI: 830 nM
SK-OV-3 ovarian
  GI50: 216 nM
  TGI: 713 nM
EKVX NSCLC
  GI50: 193 nM
  TGI: 690 nM
